Laboratory results: patent US8951734B2, “Prion-like form of CPEB and related compositions and methods” (priority 2003, dated 2015)
*1 amine or outer side, *2 acyl side, *3 side chain or, on linkers, in order; H or OH if unused. Where a SMILES comes first, the peptide text is derived from it. Bridges are numbered along the chain shown (N, C = ends). Roman numbers before positions name the chains, in order. [ ]: non-standard residue; d: D form. Actinocin(9to1) = Cc1c2oc3c(C)ccc(C(=O)[*:1])c3nc-2c(C(=O)[*:2])c(N)c1=O; NMeV = CN[C@H](C(=O)O)C(C)C; Sar = CNCC(=O)O

What was measured:
ApCPEB [1] = assay: ApCPEB protein induction in isolated pleural ganglia / sensory cell clusters stimulated with 5-HT, with or without pharmacological agents (Western blot); assay type: cell-based, Aplysia; settings: for effect on 5-HT induction of ApCPEB: pretreatment
Experimental: (§1) Aplysia weighing 80-100 grams were used for serotonin (5-HT) stimulation. For whole animal stimulation, the animals were stimulated for 1-1.5 hr at 17° C. with 100 uM of freshly prepared serotonin (Sigma) and then moved to sea water at 17° C. At designated times the pleural ganglia were dissected out. The dissection was carried out in ice cold seawater and frozen in a dry ice-ethanol bath. To apply different pharmacological agents, the pleural ganglia were dissected out and rested for 3-4 hrs at 17° C. before initiation of the treatment. The pleural ganglia were stimulated with 10 uM serotonin instead of 100 uM.
(§2) For western blotting pleural ganglia were homogenized in a buffer containing 600 mM KCl, 10 mM HEPES (7.4), 3 mM MgCl2, 1 mM DTT, and 0.2% NP-40; rotated at 4° C. for 20 min, centrifuged at 14,000×g for 10 min and the supernatant was collected. Approximately 10 ug of total protein was separated on a 10% SDS-PAGE gel and transferred to PVDF membrane. The membranes were blotted with affinity purified CPEB 533 (1:4000), rabbit affinity purified Aplysia Ubiquitin hydrolase (1:1500), rabbit anti-synaptophysin (Zymed) (1:3000), mouse anti-human Hsp70 (1:4000) (BD Biosciences) or monoclonal anti-tubulin (1:3000) (Sigma) followed by incubation with 1:10,000 dilution of HRP coupled anti-rabbit or anti-mouse secondary antibody (Cell signaling) and visualized by chemiluminescence (Pierce chemical). For peptide competition the CPEB77 antibody was preincubated with the peptide (1:20 w/w) at 4° C. for 30 min.

ApCPEB [2] = assay: ApCPEB immunostaining in bifurcated sensory-motor culture, one branch stimulated with a single pulse of 5-HT; assay type: cell-based, Aplysia; settings: 10 uM 5-HT for 50 seconds to one branch; fixed after one hour; n=10
Experimental: Following stimulation with serotonin, the cells were washed with filtered seawater and then fixed with freshly prepared 4% paraformaldehyde (PFA) in phosphate-buffered saline (PBS) plus 30% sucrose at 37° C. for 20 min. After fixation, cells were washed three times with PBS and incubated with 0.5% saponin (for isolated neurites) or 0.1% Triton X-100 (for one pulse of serotonin in the neurites) in PBS for 10 min at room temperature (RT). Subsequently cells were washed with PBS three times and excess PFA was quenched by incubating the cells in 50 mM NH4Cl in PBS for 15 min at RT. The fixed cells were blocked with a mixture of heat-inactivated 10% horse serum and 1% goat serum in PBS for 2 hr at RT, then in 1:30 dilution of affinity purified CPEB77 (for isolated neurites) or 1:100 dilution of 463 (for one pulse of serotonin in the synapse) overnight at 4° C. Next day cells were washed three times (20 min each wash) with PBS at RT before incubating with goat anti-rabbit secondary antibody conjugated with Alexa Fluor 488 (1:1000) (Molecular Probes) for 2 hr at room temperature. After three 15 min rinses with PBS cells were mounted on Fluoromount and pictures were taken at Zeiss Axiovert S-100 at 40× magnification using the program Metamorph. […]

ApCPEB mRNA = assay: Semi-quantitative RT-PCR of ApCPEB mRNA in sensory cells of pleural ganglia; assay type: cell-based, Aplysia
[3] = test system: sensory-motor neuron synapses; settings: cited from earlier work
ApCPEB [4] = assay: ApCPEB immunostaining in isolated sensory neurites (cell bodies severed); assay type: cell-based, Aplysia
Experimental: Following stimulation with serotonin, the cells were washed with filtered seawater and then fixed with freshly prepared 4% paraformaldehyde (PFA) in phosphate-buffered saline (PBS) plus 30% sucrose at 37° C. for 20 min. After fixation, cells were washed three times with PBS and incubated with 0.5% saponin (for isolated neurites) or 0.1% Triton X-100 (for one pulse of serotonin in the neurites) in PBS for 10 min at room temperature (RT). Subsequently cells were washed with PBS three times and excess PFA was quenched by incubating the cells in 50 mM NH4Cl in PBS for 15 min at RT. The fixed cells were blocked with a mixture of heat-inactivated 10% horse serum and 1% goat serum in PBS for 2 hr at RT, then in 1:30 dilution of affinity purified CPEB77 (for isolated neurites) or 1:100 dilution of 463 (for one pulse of serotonin in the synapse) overnight at 4° C. Next day cells were washed three times (20 min each wash) with PBS at RT before incubating with goat anti-rabbit secondary antibody conjugated with Alexa Fluor 488 (1:1000) (Molecular Probes) for 2 hr at room temperature. After three 15 min rinses with PBS cells were mounted on Fluoromount and pictures were taken at Zeiss Axiovert S-100 at 40× magnification using the program Metamorph.

ApCPEB [5] = assay: ApCPEB protein in pleural ganglia after whole-animal serotonin exposure (Western blot); assay type: in vivo, Aplysia
Experimental: as §1, §2

N-actin mRNA = assay: Poly-A tail length (PAT) assay of N-actin mRNA after whole-animal serotonin stimulation; assay type: in vivo, Aplysia
Experimental: The polyA test (PAT) to measure the length of the polyA tail of CPEB mRNA was essentially done as described by Salles and Strickland (1999). Total RNA from the plural ganglia was digested with DNase1 and phenol: chloroform extracted. 3 ug of total RNA was reverse transcribed with 200 ng of AdT primer (5′-[…]-3′) (SEQ ID NO:23) using AMV reverse transcriptase. 2 ul of the cDNA was amplified with Taq polymerase using AdT and N-actin primer 5′-[…]-3′ (SEQ ID NO:17) in the PCR cycle: 94° C. 30 sec, 60° C. 1 min and 72° C. 1 min, 5 sec/cycle for 30 cycles. To check the amount of sensorin, Bmp1 and N-actin, the following primer pairs were used; sensorin-5′-AACAGAAACAGTC-TTTCCCCC-3′ (SEQ ID NO:24) and 5′-TCTTGACTCACCAACTGCC-3′ (SEQ ID NO:25), Bmp1-5′-ATCTATCGCCTATT-ATTATCACCA-3′ (SEQ ID NO:26) and 5′-[…]-3′ (SEQ ID NO:27), N-actin 5′-CCCATCCAT-TGTCCACA-3′ (SEQ ID NO:28) and 5′-TTTGAGCATTCTGGCTTC-3′(SEQ ID NO:29).

[6] = whole animal serotonin exposure then seawater

With `COc1ccc2c(c[n+](C)c3c4cc5c(cc4ccc23)OCO5)c1OC` [chelerythrine] the “effect on serotonin dependent increase of ApCPEB protein” value (ApCPEB [1]; PKC inhibitor, 10 uM) was “did not affect”.

For `NCCc1c[nH]c2ccc(O)cc12` [serotonin], the “average fluorescence intensity (ApCPEB immunoreactivity) in treated branch” value (ApCPEB [2]) is listed as 53.3±8.7, the “amount of ApCPEB mRNA, treated versus untreated” value (ApCPEB mRNA) is listed as “no significant difference” and the “duration of long-term facilitation (LTF)” value ([3]; five pulses (Martin et al. 1997)) is listed as “three or more days”. For the same compound, the “duration of synapse-specific short-term facilitation” value ([3]; single pulse to one of two sets of synapses (Martin et al. 1997)) was “lasts for minutes”, the “average fluorescence intensity (ApCPEB immunoreactivity) in stimulated neurites” value (ApCPEB [4]; 10 uM 5-HT bath application 1 hr, n=8) was 9.37±0.73 and the “average fold induction of ApCPEB” value (ApCPEB [1]; 5-HT for an hour, western blots scanned and quantified with NIH image, controls of inhibitor sets (FIG. 5d)) was 3.3±0.4. The “increase of total CPEB content” value (ApCPEB [1]; isolated pleural ganglia, 10 uM 5-HT) was 3-4 fold, the “increase in total ApCPEB protein content” value (ApCPEB [1]; sensory cell clusters, 10 uM 5-HT for 10 min, then seawater 50 min) was 4-5 fold and the “increase of total content of ApCPEB” value (ApCPEB [5]; whole animal exposed to serotonin for one hour, thirty minutes after initiation of treatment, pleural ganglia extract) was 4 to 5 fold. For the same compound, the “persistence of increased level of ApCPEB” value (ApCPEB [5]; [6]) was “about 3 hours”, the “return of ApCPEB to basal levels” value (ApCPEB [5]; [6]) was “returned to basal levels after five hours” and the “duration of increased poly(A) tail of N-actin” value (N-actin mRNA; whole-animal stimulation) was “at least 4 hours”. The “increase of poly(A) tail of N-actin” value (N-actin mRNA; within an hour after initiation of treatment) was 200-400 nucleotides.

In the case of `C[C@@H]1C[C@@H]([C@H](O)CC2CC(=O)NC(=O)C2)C(=O)[C@@H](C)C1` [cycloheximide], the “effect on 5-HT induction of ApCPEB protein” value (ApCPEB [1]; 40 uM) is reported as “reduced”.

In the case of `CCCCCCOC(=O)[C@]1(O)C[C@@H]2O[C@@]1(C)n1c3ccccc3c3c4c(c5c6ccccc6n2c5c31)C(=O)NC4` [KT5720], the “effect on serotonin induced increase in ApCPEB” value (ApCPEB [1]; PKA inhibitor pretreatment of sensory clusters, 30 min) is reported as “did not block”.

With `Nc1ncnc2c1ncn2[C@@H]1O[C@@H]2COP(O)(=S)O[C@H]2[C@H]1O` (stereo partly drawn) [SpcAMP] the “level of ApCPEB” value (ApCPEB [1]; activation of PKA by cell permeable cAMP analog, data not shown) was “did not change”.

With `Cc1c2oc3c(C)ccc(C(=O)N[C@@H]4C(=O)N[C@H](C(C)C)C(=O)N5CCC[C@H]5C(=O)N(C)CC(=O)N(C)[C@@H](C(C)C)C(=O)O[C@@H]4C)c3nc-2c(C(=O)N[C@@H]2C(=O)N[C@H](C(C)C)C(=O)N3CCC[C@H]3C(=O)N(C)CC(=O)N(C)[C@@H](C(C)C)C(=O)O[C@@H]2C)c(N)c1=O` [actinomycin D] (I: T[dV]P[Sar][NMeV] / II: T[dV]P[Sar][NMeV]; ester I:1-I:C, II:1-II:C; linker I:N-II:N via Actinocin(9to1)) the “effect on 5-HT induction of ApCPEB” value (ApCPEB [1]; 10 ug/ml) was “did not block”.

In the case of `CC[C@H](C)[C@@H]1NC(=O)CNC(=O)[C@@H]2Cc3c([nH]c4cc(O)ccc34)[S+]([O-])C[C@@H](NC(=O)CNC1=O)C(=O)N[C@@H](CC(N)=O)C(=O)N1C[C@H](O)C[C@H]1C(=O)N[C@@H]([C@@H](C)[C@@H](O)CO)C(=O)N2` (stereo in doubt) [α-amanitin], the “effect on 5-HT induction of ApCPEB” value (ApCPEB [1]; 50 ug/ml) is reported as “did not block”.

For `CC[C@H]1CN2CCc3cc(OC)c(OC)cc3[C@@H]2C[C@@H]1C[C@H]1NCCc2cc(OC)c(OC)cc21` [emetine], the “effect on 5-HT induction of ApCPEB protein” value (ApCPEB [1]; 100 uM) was “reduced”.

With `CO[C@H]1C[C@@H]2CC[C@@H](C)[C@@](O)(O2)C(=O)C(=O)N2CCCC[C@H]2C(=O)O[C@H]([C@H](C)C[C@@H]2CC[C@@H](O)[C@H](OC)C2)CC(=O)[C@H](C)/C=C(\C)[C@@H](O)[C@@H](OC)C(=O)[C@H](C)C[C@H](C)/C=C/C=C/C=C/1C` [rapamycin] the “average fluorescence intensity (ApCPEB immunoreactivity)” value (ApCPEB [4]; neurites stimulated with 5-HT in presence of 20 nM rapamycin, n=9) was 0.77±0.1.
